Ki and fpKi activity data for 29 compounds are collected here from patent US20230174484A1, “ANTAGONISTS OF GPR39 PROTEIN” (Oregon Health & Science University, priority 2020, published 2023).

Counter-ions that a name gives are not always drawn.

For this test, the target named is T1, human GPR39 receptor (Homo sapiens, UniProt O43194).
T1 construct: PC3 Cells, Expressing the Endogenous Human GPR39 Receptor; endogenous in cells; host or cells: PC3 (human prostate adenocarcinoma) cells
T1 sequence (O43194 1-453): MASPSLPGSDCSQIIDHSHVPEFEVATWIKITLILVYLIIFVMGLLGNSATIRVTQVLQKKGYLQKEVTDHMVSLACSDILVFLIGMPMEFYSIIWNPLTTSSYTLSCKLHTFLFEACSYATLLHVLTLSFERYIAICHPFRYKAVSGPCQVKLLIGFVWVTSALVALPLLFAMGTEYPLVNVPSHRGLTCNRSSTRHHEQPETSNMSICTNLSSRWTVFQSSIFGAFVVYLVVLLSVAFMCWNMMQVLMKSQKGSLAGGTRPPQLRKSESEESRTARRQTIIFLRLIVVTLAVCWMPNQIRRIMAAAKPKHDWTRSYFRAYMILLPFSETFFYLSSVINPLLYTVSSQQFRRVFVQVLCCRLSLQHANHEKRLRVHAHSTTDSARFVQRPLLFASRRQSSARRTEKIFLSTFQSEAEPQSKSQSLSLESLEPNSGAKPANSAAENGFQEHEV
The test is described as follows: Measurement of intracellular calcium response in PC3 cells (FLIPR), antagonism of the C3 agonist response. The class given is cell-based. Conditions: functional pKi (modified Cheng-Prusoff); for Ki: inhibition of the C3 (TC-G 1008) response at EC90, 30 μM ZnCl2, read-out: fpKi activity. The gist of the method:
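Potency was reported as fpKi, converted by modified Cheng-Prusoff from four-parameter IC50 fits against an EC90 C3 agonist challenge. Calcium-6 FLIPR readings used PC3 cells naturally expressing human GPR39, in pH 7.4 HEPES buffer containing 30 μM final ZnCl2. Score bands: +/± <5.2, + 5.2–5.9, ++ 6.0–6.5, +++ 6.6–7.2, ++++ ≥7.3.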

Consider `CN1CCN(C(=O)c2ccc(-c3nccn3C)cc2N2CCCC2)C(c2ccccc2)C1` (racemic) [Example 121, [4-(1-methylimidazol-2-yl)-2-pyrrolidin-1-ylphenyl]-(4-methyl-2-phenylpiperazin-1-yl)methanone], for which the Ki was 1260 to 6310 nM.

For `CCCN1CCN(C(=O)c2ccc(-c3nnc(C4CC4)[nH]3)cc2N2CCCCCC2)CC1` [Example 118, [2-(azepan-1-yl)-4-(5-cyclopropyl-4H-1,2,4-triazol-3-yl)phenyl]-(4-propylpiperazin-1-yl)methanone], the Ki is 316 to 1000 nM.

Consider `O=C(Nc1ccc(C(=O)N2CCN(Cc3cc[nH]n3)CC2)c(N2CCCCCC2)c1)C1CC1` [Example 23], for which the Ki lay within 316 to 1000 nM.

For `O=C(Nc1ccc(C(=O)N2CCS(=O)(=O)CC2)c(N2CC3CCC2C3)c1)C1CC1` (centres unmarked) [Example 187, N-[3-(3-azabicyclo[2.2.1]heptan-3-yl)-4-(1,1-dioxo-1,4-thiazinane-4-carbonyl)phenyl]cycloprooanecarboxamide], the Ki lay in the range of 316 to 1000 nM.

As to `CCCN1CCN(C(=O)c2ncc(NC(=O)C3CC3)nc2N2CCCCCC2)CC1` [Example 106, N-[6-(azepan-1-yl)-5-(4-propylpiperazine-1-carbonyl)pyrazin-2-yl]Cyclopropanecarboxamide], the Ki fell in the range of 1260 to 6310 nM.

With `Cc1nnc(-c2ccc(C(=O)N3CCC4(CC3)CC4)c(-n3ccc(C(F)(F)F)n3)c2)[nH]1` [Example 214, 6-azaspiro[2.5]octan-6-yl-[4-(5-methyl-4H-1,2,4-triazol-3-yl)-2-[3-(trifluoromethyl)pyrazol-1-yl]phenyl]methanone], the Ki is not above 50.1 nM.

Turning to `O=C(NCc1cccnc1)c1ccc(NC(=O)C2CC2)cc1N1CCCCCC1` [Example 44, 2-(azepan-1-yl)-4-(cyclopropanecarbonylamino)-N-(pyridin-3-ylmethyl)benzamide], the Ki lay in the range of 1260 to 6310 nM.

`CC1CCN(c2cc(NC(=O)C3CC3)ccc2C(=O)N2CCN(C)CC2c2ccccc2)C1` (single isomer, unassigned) [Example 64b, (2S, 3R) or (2R, 3S) or (2R, 3R) or (2S, 3S) N-[4-(4-methyl-2-phenylpiperazine-1-carbonyl)-3-(3-methylpyrrolidin-1-yl)phenyl] cyclopropanecarboxamide]: the Ki lay in the range of 1260 to 6310 nM.

Regarding `Cc1nnc(-c2ccc(C(=O)N3CCC(F)(F)CC3)c(-n3ccc(C4CC4)n3)c2)[nH]1` [Example 209, [2-(3-cyclopropylpyrazol-1-yl)-4-(5-methyl-4H-1,2,4-triazol-3-yl)phenyl]-(4,4-difluoropiperidin-1-yl)methanone], the Ki is not above 50.1 nM.

With `CCCN1CCN(C(=O)c2ccc(NC(=O)C3CC3)cc2N2CCCC3(COC3)C2)CC1` [Example 6, N-(4-(4-propylpiperazine-1-carbonyl)-3-(2-oxa-6-azaspiro[3.5]nonan-6-yl)phenyl)cyclopropane carboxamide], the Ki was 1260 to 6310 nM.

For `CCCN1CCN(C(=O)c2ccc(NC(=O)C3CC3)cc2N2CCC3(CCC3)C2)CC1` [Example 1, N-(4-(4-propylpiperazine-1-carbonyl)-3-(6-azaspiro[3.4]octan-6-yl)phenyl)cyclopropanecarboxamide], the Ki is not above 50.1 nM.

`CC1CC(C)CN(c2cc(NC(=O)C3CC3)ccc2C(=O)N2CCN(C)CC2c2ccccc2)C1` (racemic) [Example 68c, Syn N-[3-[3,5-dimethylpiperidin-1-yl]-4-(4-methyl-2-phenylpiperazine-1-carbonyl)phenyl]cyclopropanecarboxamide]: the Ki was not above 50.1 nM.

`C[C@@H]1C[C@@H](C)CN(c2cc(NC(=O)C3CC3)ccc2-c2ncc3n2CCN(C)C3)C1` (relative stereo) [Example 104a, N-[3-(3,5-dimethylpiperidin-1-yl)-4-(7-methyl-6,8-dihydro-5H-imidazo[1,5-a]pyrazin-3-yl)phenyl] cyclopropanecarboxamide]: the Ki lay within 316 to 1000 nM.

For `O=C(Nc1ccc(C(=O)N2CCc3ccccc3C2)c(N2CCCCCC2)c1)C1CC1` [Example 21, N-(3-(azepan-1-yl)-4-(1,2,3,4-tetrahydroisoquinoline-2-carbonyl)phenyl) cyclopropanecarboxamide], the Ki is 316 to 1000 nM.

As to `CCCN1CCN(C(=O)c2ccc(NC(=O)CC)cc2N2CCCCCC2)CC1` [Example 94, N-(3-(azepan-1-yl)-4-(4-propylpiperazine-1-carbonyl)phenyl)propionamide], the Ki lay within 316 to 1000 nM.

As to `COc1ccc(CN2CCN(C(=O)c3ccc(NC(=O)C4CC4)cc3N3CCCCCC3)CC2)cc1` [Example 30, N-(3-(azepan-1-yl)-4-(4-(4-methoxybenzyl)piperazine-1-carbonyl)phenyl) cyclopropanecarboxamide], the Ki lay within 316 to 1000 nM.

Turning to `CN1CCN(C(=O)c2ccc(NC(=O)C3CC3)cc2N2CCC(C(F)(F)F)C2)C(c2ccccc2)C1` (single isomer, unassigned) [Example 199e, (2S, 3R) or (2R, 3S) or (2R, 3R) or (2S, 3S) N-[4-(4-methyl-2-phenylpiperazine-1-carbonyl)-3-[3-(trifluoromethyl)pyrrolidin-1-yl]phenyl]cyclopropanecarboxamide hydrochloride], the Ki was not above 50.1 nM.

As for `Cc1nnc(-c2ccc(C(=O)N3CCC(F)(F)CC3)c(-n3ccc(C(C)C)n3)c2)[nH]1` [Example 210, (4,4-difluoropiperidin-1-yl)-[4-(5-methyl-4H-1,2,4-triazol-3-yl)-2-(3-propan-2-ylpyrazol-1-yl)phenyl]methanone], the Ki is not above 50.1 nM.

`O=C(Nc1ccc(C(=O)N2CCN(Cc3ccccc3Cl)CC2)c(N2CCCCCC2)c1)C1CC1` [Example 31, N-(3-(azepan-1-yl)-4-(4-(2-chlorobenzyl)piperazine-1-carbonyl)phenyl) Cyclopropanecarboxamide]: the Ki lay within 316 to 1000 nM.

Turning to “(2R or 2S) N-[6-(3,3-difluoropyrrolidin-1-yl)-5-(4-methyl-2-phenylpiperazine-1-carbonyl)pyridin-2-yl]cyclopropanecarboxamide [Example 148b]”, under “inhibition of the C3 (TC-G 1008) response at EC90, 30 μM ZnCl2”, the fpKi activity result is “+ (An fpKi ranging from 5.2 to 5.9 is reported as “+”)”.

As to `CN1CCN(C(=O)c2ccc(NC(=O)C3CC3)cc2N2CCC3(CCC3)C2)C(c2ccccc2)C1` (single isomer, unassigned) [Example 66b, N-[3-(6-azaspiro[3.4]octan-6-yl)-4-(4-methyl-2-phenylpiperazine-1-carbonyl)phenyl]cyclopropanecarboxamide], the Ki is 316 to 1000 nM.

`CN1CCN(C(=O)c2ccc(NC(=O)C3CC3)cc2N2CCCCCC2)C(c2cccs2)C1` (single isomer, unassigned) [Example 69b, N-(3-(azepan-1-yl)-4-(4-methyl-2-(thiophen-2-yl)piperazine-1-carbonyl)phenyl) cyclopropane carboxamide]: the Ki was not above 50.1 nM.

Regarding `O=C(Nc1ccc(C(=O)N2CCn3cccc3C2)c(N2CCCCCC2)c1)C1CC1` [Example 39, N-(3-(azepan-1-yl)-4-(1,2,3,4-tetrahydropyrrolo[1,2-a]pyrazine-2-carbonyl)phenyl) cyclopropane carboxamide], the Ki fell in the range of 63.1 to 251 nM.

With `O=C(Nc1ccc(C(=O)N2CCS(=O)(=O)CC2)c(N2CCC3(CCC3)C2)n1)C1CC1` [Example 143, N-[6-(6-azaspiro[3.4]octan-6-yl)-5-(1,1-dioxo-1,4-thiazinane-4-carbonyl)pyridin-2-yl]cyclopropanecarboxamide], the Ki is not above 50.1 nM.

For the compound `Cc1nnc(-c2ccc(C(=O)N3CCN(C)CC3c3ccccc3)c(N3CCC(C(F)(F)F)C3)c2)[nH]1` (single isomer, unassigned) [Example 177d, (2S, 3R) or (2R, 3S) or (2R, 3R) or (2S, 3S) (4-methyl-2-phenylpiperazin-1-yl)-[4-(5-methyl-4H-1,2,4-triazol-3-yl)-2-[3-(trifluoromethyl)pyrrolidin-1-yl]phenyl]methanone], the Ki lay in the range of 316 to 1000 nM.

On to `O=C(Nc1ccc(C(=O)N2CCS(=O)(=O)CC2)c(N2CCC(C(F)(F)F)C2)c1)C1CC1` (racemic) [Example 183c, N-[4-(1,1-dioxo-1,4-thiazinane-4-carbonyl)-3-[3-(trifluoromethyl)pyrrolidin-1-yl]phenyl]cyclopropanecarboxamide], for which the Ki was in the range of 63.1 to 251 nM.

For `CN1CCN(c2ccc(CNC(=O)c3ccc(NC(=O)C4CC4)cc3N3CCCCCC3)cc2)CC1` [Example 56, 2-(azepan-1-yl)-4-(cyclopropanecarbonylamino)-N-[[4-(4-methylpiperazin-1-yl)phenyl]methyl]benzamide], the Ki lay in the range of 1260 to 6310 nM.

Regarding `CN1CCN(C(=O)c2ccc(NC(=O)C3CC3)cc2N2CCCCCC2)CC1` [Example 49, N-(3-(azepan-1-yl)-4-(4-methylpiperazine-1-carbonyl)phenyl)cyclopropanecarboxamide], the Ki lay within 63.1 to 251 nM.

Regarding `Cc1noc(-c2ccc(C(=O)N3CCC(C(F)(F)F)CC3)c(N3CCCC3)c2)n1` [Example 152, [4-(3-methyl-1,2,4-oxadiazol-5-yl)-2-pyrrolidin-1-ylphenyl]-[4-(trifluoromethyl)piperidin-1-yl]methanone], the Ki was 316 to 1000 nM.
